Reference: PubChem BioAssay AID602166 (The Scripps Research Institute Molecular Screening Center, 2012)
The source made the active and inactive calls. The rule behind the calls is not given here.

What follows are compounds tested against Nuclear receptor coactivator 3 (Homo sapiens) (UniProt Q9Y6Q9) (assay: NCOA3 reporter inhibition potency – cell-based, luminescence, dose response (AID 602166;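 note: potency for reduction of SRC3 reporter signal so compounds are inhibitors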)). Settings: SRC3 luciferase reporter cell assay.
Nuclear receptor coactivator 3 (Homo sapiens), sequence (Q9Y6Q9 whole entry, looked up): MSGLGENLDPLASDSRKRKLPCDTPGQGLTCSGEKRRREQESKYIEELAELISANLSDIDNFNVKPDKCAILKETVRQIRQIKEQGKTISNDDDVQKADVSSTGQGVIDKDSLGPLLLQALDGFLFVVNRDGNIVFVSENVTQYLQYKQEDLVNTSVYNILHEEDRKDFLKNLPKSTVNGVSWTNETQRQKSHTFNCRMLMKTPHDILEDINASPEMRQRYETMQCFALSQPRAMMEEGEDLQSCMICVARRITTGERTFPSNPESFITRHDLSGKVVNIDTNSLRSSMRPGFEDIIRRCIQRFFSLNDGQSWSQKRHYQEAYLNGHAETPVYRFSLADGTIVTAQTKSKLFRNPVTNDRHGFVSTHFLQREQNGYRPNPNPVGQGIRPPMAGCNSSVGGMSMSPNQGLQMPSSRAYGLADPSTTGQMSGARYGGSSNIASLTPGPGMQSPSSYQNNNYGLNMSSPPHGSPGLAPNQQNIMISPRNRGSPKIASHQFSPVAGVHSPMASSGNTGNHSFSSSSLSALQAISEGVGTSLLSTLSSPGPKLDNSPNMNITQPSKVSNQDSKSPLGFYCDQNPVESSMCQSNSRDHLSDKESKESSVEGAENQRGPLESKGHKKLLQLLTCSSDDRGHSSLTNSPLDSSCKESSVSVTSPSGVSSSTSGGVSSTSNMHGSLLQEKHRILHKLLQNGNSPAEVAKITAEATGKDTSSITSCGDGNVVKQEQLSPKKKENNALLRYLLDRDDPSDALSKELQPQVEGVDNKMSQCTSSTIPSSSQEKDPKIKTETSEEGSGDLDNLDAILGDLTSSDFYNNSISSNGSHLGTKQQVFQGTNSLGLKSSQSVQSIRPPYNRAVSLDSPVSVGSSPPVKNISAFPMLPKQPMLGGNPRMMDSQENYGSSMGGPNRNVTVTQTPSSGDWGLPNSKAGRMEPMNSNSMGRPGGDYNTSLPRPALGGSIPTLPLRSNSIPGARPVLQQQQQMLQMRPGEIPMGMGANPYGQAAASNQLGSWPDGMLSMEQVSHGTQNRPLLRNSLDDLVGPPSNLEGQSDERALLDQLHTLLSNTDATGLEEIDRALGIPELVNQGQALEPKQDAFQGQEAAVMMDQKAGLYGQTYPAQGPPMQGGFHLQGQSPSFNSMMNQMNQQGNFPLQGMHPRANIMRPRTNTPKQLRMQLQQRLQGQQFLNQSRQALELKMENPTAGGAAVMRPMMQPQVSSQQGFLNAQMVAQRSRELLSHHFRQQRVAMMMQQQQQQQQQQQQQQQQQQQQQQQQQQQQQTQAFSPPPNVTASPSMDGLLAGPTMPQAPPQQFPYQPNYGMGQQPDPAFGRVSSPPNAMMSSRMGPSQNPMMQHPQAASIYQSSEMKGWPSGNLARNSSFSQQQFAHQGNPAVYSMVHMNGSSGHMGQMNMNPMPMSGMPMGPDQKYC
For `O=c1[nH]c2ccccc2n1C1CCN(C(c2ccccc2)c2nnnn2Cc2ccccc2)CC1` (stereo not drawn), the IC50 was “inactive”.
In the case of `Nc1ccc(Oc2ccccc2-c2ccccc2)cc1`, the IC50 is reported as “inactive”.
Work on `NC(=O)c1sc2nc3c(c(-c4ccco4)c2c1N)CCC3` yielded an IC50 of 1.12 µM.
With `NC(=S)N/N=C1\CCOc2ccc(Cl)cc21` the IC50 was 6.9 µM.
For `CCOc1ccc(/C=C2\SC(=S)N(CCCC(=O)NCCCN3CCOCC3)C2=O)cc1`, the IC50 was “inactive”.
In the case of `O=C(Nc1cccnc1)c1ccc(C(=O)Nc2cccnc2)cc1`, the IC50 is reported as > 35.9 µM (inactive).
In the case of `CC1(C)N=C(N)N=C(N)N1CCCCc1ccccc1`, the IC50 is reported as 3.98 µM.
With `O=C(Nc1nc2cc3c(cc2s1)OCCO3)C1=COCCO1` the IC50 was “inactive”.
Compound `CN(C)c1ccc(/C=C/c2ccc3ccccc3n2)cc1` has an IC50 of 5.65 µM.
`C=CCn1c(C)cc(C(=O)COc2ccc(C)nc2[N+](=O)[O-])c1C` was tested, and the IC50 was > 35.9 µM (inactive).
`CCn1ccnc1CN(C)Cc1cn[nH]c1-c1ccc(OC)c(F)c1` was tested, and the IC50 was 4.91 µM.
`CCOc1cc(C(N)=O)cc(Br)c1OC` was tested, and the IC50 was 5.79 µM.
`CN(C)c1ccc(CNC(=O)CCNS(=O)(=O)c2cc(Br)cnc2N)cc1` gave an IC50 of 4.34 µM.
For `Brc1ccc2ncc3ccccc3c2c1`, the IC50 was 8.02 µM.
`C=CCOn1c(C)c(C(C)=O)c2c3nonc3ccc21` showed an IC50 of 4.12 µM.
For `Clc1ccc(-c2csc3ncnc(NCCN4CCOCC4)c23)cc1`, the IC50 was 8.15 µM.
Work on `COc1ccc(COC(=O)C2=C(C)NC(=O)NC2c2ccc(F)cc2)cc1` (stereo not drawn) yielded an IC50 of 7.71 µM.
With `O=C(OCc1ccccc1)c1ccc(NCc2cc(O)ccc2O)cc1` the IC50 was “inactive”.
`O=C(NCc1ccccc1)c1c(Cl)nc(Cl)c(Cl)c1Cl` was tested, and the IC50 was “inactive”.
`COc1cc(/C=C2\CC(C(C)(C)C)C/C(=C\c3cc(OC)c(OC)c(OC)c3)C2=O)cc(OC)c1OC` (stereo not drawn) was tested, and the IC50 was > 35.9 µM (inactive).
For `Nc1nc(CCl)nc(Nc2cccc3ccccc23)n1`, the IC50 was “inactive”.
In the case of `Cc1cc(C(=O)COC(=O)C2=COCCO2)c(C)n1-c1ccccc1`, the IC50 is reported as > 35.9 µM (inactive).
For `COc1cccc(/C=N/Nc2ccc([N+](=O)[O-])cn2)c1O`, the IC50 was “inactive”.
`COc1ccc(C(C(=O)NC2CCCCC2)N(C(=O)CCl)c2ccc(OC)cc2)cc1` (stereo not drawn) was tested, and the IC50 was 7.79 µM.
In the case of `NNC(=O)c1cc2ccccc2cc1O`, the IC50 is reported as 7.35 µM.
In the case of `CCOc1ccccc1-n1c(SCC(=O)Nc2ccccc2C(=O)O)nc2ccccc2c1=O`, the IC50 is reported as > 35.9 µM (inactive).
In the case of `CNc1ncnc(Sc2nc(N)nc3nc[nH]c23)c1[N+](=O)[O-]`, the IC50 is reported as 4.17 µM.
`O=C(COC(=O)c1ccc[nH]c1=O)Nc1ccc(N2CCCCC2)cc1` showed an IC50 of 2.9 µM.
For `CN(Cc1cnc2nc(N)nc(N)c2n1)c1ccc(C(=O)NC(CCC(=O)O)C(=O)O)cc1` (stereo not drawn), the IC50 was > 35.9 µM (inactive).
With `CC(=O)c1ccc(Nc2c3c(nc4ccccc24)CCCC3)cc1` the IC50 was “inactive”.
`CCOc1ccc(Nc2cc(C)nc(-n3nc(C)cc3C)n2)cc1` was tested, and the IC50 was > 35.9 µM (inactive).
In the case of `Cc1ccc(-n2c(C)cc(C(=O)COc3cccnc3[N+](=O)[O-])c2C)cc1`, the IC50 is reported as > 35.9 µM (inactive).
`CO[C@@]12[C@@H]3N[C@@H]3CN1C1=C(C(=O)C(N)=C(C)C1=O)[C@@H]2COC(N)=O` was tested, and the IC50 was > 35.8 µM (inactive).
In the case of `O=C(N/N=C/c1cc(Br)c(Br)s1)c1ccncc1`, the IC50 is reported as 8.67 µM.
In the case of `CN1CCN(c2ccc(NC(=O)N3CCc4ccccc43)cc2)CC1`, the IC50 is reported as > 35.9 µM (inactive).
With `O=C(NC(NC(=S)N1CCOCC1)C(Cl)(Cl)Cl)c1ccc(Cl)cc1` (stereo not drawn) the IC50 was > 35.9 µM (inactive).
For `CS(=O)(=O)c1ccc(Sc2nc3ccccc3s2)c([N+](=O)[O-])c1`, the IC50 was > 35.9 µM (inactive).
For `O=C(CCl)Nc1cccc(-c2cnc3ccccc3n2)c1`, the IC50 was “inactive”.
With `Cc1cccc(C)c1NS(=O)(=O)c1ccc(-c2cnc(C3CC3)o2)cc1` the IC50 was “inactive”.
`COc1cc([C@@H]2c3cc4c(cc3[C@@H](O[C@@H]3O[C@@H]5CO[C@@H](C)O[C@H]5[C@H](O)[C@H]3O)[C@H]3COC(=O)[C@H]23)OCO4)cc(OC)c1O` was tested, and the IC50 was 2.48 µM.
With `CC(=O)Nc1ccc(SCC(=O)c2cc(C)n(-c3ccccc3F)c2C)cc1` the IC50 was > 35.9 µM (inactive).
With `COc1ccc(-c2cn[nH]c2-c2ccc(OC)cc2O)cc1` the IC50 was 2.89 µM.
`CCCC(=O)NC(c1ccc(Cl)cc1)c1ccc2cccnc2c1O` (stereo not drawn) showed an IC50 of 4.7 µM.
In the case of `COc1ccc(/C=C2\CN(Cc3ccccc3)C/C(=C\c3ccc(OC)c(O)c3)C2=O)cc1O`, the IC50 is reported as > 35.9 µM (inactive).
Work on `O=[N+]([O-])c1ccc(N(CCO)CCO)c2c1no[n+]2[O-]` yielded an IC50 of 7.24 µM.
With `Cc1ccc(OCC(=O)c2cc(C)n(-c3ccccc3)c2C)c([N+](=O)[O-])n1` the IC50 was “inactive”.
In the case of `CC(C)(C)c1ccc(Oc2ccc(N)cn2)cc1`, the IC50 is reported as “inactive”.
In the case of `Cc1c(Cl)cccc1NC(=O)Nc1ccccc1C(N)=O`, the IC50 is reported as > 35.9 µM (inactive).
Compound `c1ccc(-c2noc(-c3ccc4ccccc4c3)n2)nc1` has an IC50 of 8.62 µM.
Compound `O=C(NC1CCCCC1)C(c1cccnc1)N(C(=O)CCl)c1cccc(Cl)c1` (stereo not drawn) has an IC50 of 3.1 µM.
For `Cc1ccc2nc(C(F)(F)F)c(C#N)c(N)c2c1`, the IC50 was “inactive”.
`CCCCC(=O)NC(c1ccc(Cl)cc1Cl)c1ccc2cccnc2c1O` (stereo not drawn) gave an IC50 of 4.71 µM.
Work on `CCOC(=O)C(=CNc1ccc(NC2=NCC(C)S2)cc1)C(=O)OCC` (stereo not drawn) yielded an IC50 of 3.32 µM.
With `O=C(NCCCn1ccnc1)c1ccc(N2CCCCCC2)c([N+](=O)[O-])c1` the IC50 was “inactive”.
With `O=c1[nH]c2ccccc2n1C1CCN(C(c2cc3ccccc3o2)c2nnnn2Cc2ccccc2)CC1` (stereo not drawn) the IC50 was “inactive”.
`CNC(=O)c1cccn(Cc2ccc(C(F)(F)F)cc2)c1=O` was tested, and the IC50 was > 35.8 µM (inactive).
For `COc1cccc(F)c1C(C[N+](=O)[O-])c1c(N)n(C)c(=O)n(C)c1=O` (stereo not drawn), the IC50 was “inactive”.
With `COc1ccc(/C=C2/SC(=S)N(CCC(=O)O)C2=O)cc1` the IC50 was > 35.9 µM (inactive).
For `O=c1[nH]cnc2c1nnn2C1OC(CO)C(O)C1O` (stereo not drawn), the IC50 was 4.66 µM.
With `CC1CCN(C2=NC(=O)/C(=C/c3ccccc3F)S2)CC1` the IC50 was > 35.9 µM (inactive).
In the case of `COc1ccc(Nc2ccncc2[N+](=O)[O-])cc1`, the IC50 is reported as 5.32 µM.
For `CCOc1cc(/C=C2\CCC/C(=C\c3cc(Cl)c(O)c(OCC)c3)C2=O)cc(Cl)c1O`, the IC50 was > 35.8 µM (inactive).
`CCCc1c(C)nc2ccccc2c1SCCC#N` was tested, and the IC50 was 7.93 µM.
For `COc1ccc(-c2nsc3c(N4CCCCC4)ncnc23)cc1`, the IC50 was > 35.9 µM (inactive).
`Oc1ccc(C=NNc2ccccn2)c(O)c1` was tested, and the IC50 was “inactive”.
For `Cc1ccc(N=Nc2ccc3ccccc3c2O)cc1`, the IC50 was > 35.9 µM (inactive).
`Cc1ccc(N(CCC#N)C(=O)CCl)cc1C` showed an IC50 of 8.64 µM.
`CCCCN1C=CC(=C2C(=O)c3ccccc3C2=O)C=C1` gave an IC50 of 4.47 µM.
With `COc1ccc(OC)c(N/C=C/C(=O)c2ccccc2)c1` the IC50 was “inactive”.
With `O=C(Nc1ccccc1Oc1ccccc1)c1cc([N+](=O)[O-])ccc1Cl` the IC50 was 5.45 µM.
Compound `COc1ccccc1N(C(=O)CCl)c1cn(C(C)=O)c2ccccc12` has an IC50 of 8.1 µM.
For `COc1cc(C(=O)OCC(=O)Nc2sccc2C(N)=O)cc(OC)c1OC`, the IC50 was > 35.9 µM (inactive).
In the case of `C(=N\Nc1ccc2ccccc2n1)/c1ccc2c(c1)OCCO2`, the IC50 is reported as “inactive”.
`Nc1nccc(-c2ccc(-n3cnc4ccccc43)cc2)n1` gave an IC50 of 1.91 µM.
Compound `Cc1ccc(/C=C2\SC(=S)N(CCCC(=O)NC3CCCC3)C2=O)cc1` has an IC50 of 1.76 µM.
`CC(=O)c1cccc(NC(=O)Nc2ccc3c(c2)N(C)C(=O)CS3)c1` was tested, and the IC50 was > 12 µM (inactive).
With `O=[N+]([O-])c1cccc2c1ccc1ncccc12` the IC50 was 8.07 µM.
`Cc1ccc(C(=O)O/N=C(\N)c2ccccn2)c(Cl)c1` was tested, and the IC50 was > 35.9 µM (inactive).
